In brackets after ≈: the same amount, converted by molar mass.
Legend:
[1] = biological target: Delta-type opioid receptor (Homo sapiens, UniProt P41143); experiment: Displacement of [3H]DPDPE from human delta opioid receptor expressed in CHO cell membranes by microbeta scintillation counting analysis
[2] = tested on: Trichomonas vaginalis; experiment: Antimicrobial activity against Trichomonas vaginalis after 48 hrs by neutral red staining based invert microscopic analysis; assay type: functional
[3] = biological target: Mu-type opioid receptor (Homo sapiens, UniProt P35372); experiment: Displacement of [3H]DAMGO from human mu opioid receptor expressed in CHO cell membranes by microbeta scintillation counting analysis
[4] = biological target: Kappa-type opioid receptor (Homo sapiens, UniProt P41145); experiment: Displacement of [3H]U-69,593 from human kappa opioid receptor expressed in CHO cell membranes by microbeta scintillation counting analysis
[5] = Antimicrobial activity against Tritrichomonas mobilensis after 48 hrs by neutral red staining based invert microscopic analysis; assay type: functional

Delta-type opioid receptor, sequence (P41143 whole entry): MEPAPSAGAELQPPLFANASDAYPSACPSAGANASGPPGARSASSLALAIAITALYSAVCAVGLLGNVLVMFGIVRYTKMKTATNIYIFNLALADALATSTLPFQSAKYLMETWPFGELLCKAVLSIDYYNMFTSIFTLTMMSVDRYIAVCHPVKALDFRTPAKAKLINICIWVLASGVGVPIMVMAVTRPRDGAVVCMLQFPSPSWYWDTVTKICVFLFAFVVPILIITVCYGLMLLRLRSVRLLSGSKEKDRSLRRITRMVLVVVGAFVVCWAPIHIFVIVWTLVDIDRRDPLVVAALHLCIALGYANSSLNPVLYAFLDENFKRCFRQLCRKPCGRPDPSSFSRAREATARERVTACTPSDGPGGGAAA
Mu-type opioid receptor, sequence (P35372 whole entry): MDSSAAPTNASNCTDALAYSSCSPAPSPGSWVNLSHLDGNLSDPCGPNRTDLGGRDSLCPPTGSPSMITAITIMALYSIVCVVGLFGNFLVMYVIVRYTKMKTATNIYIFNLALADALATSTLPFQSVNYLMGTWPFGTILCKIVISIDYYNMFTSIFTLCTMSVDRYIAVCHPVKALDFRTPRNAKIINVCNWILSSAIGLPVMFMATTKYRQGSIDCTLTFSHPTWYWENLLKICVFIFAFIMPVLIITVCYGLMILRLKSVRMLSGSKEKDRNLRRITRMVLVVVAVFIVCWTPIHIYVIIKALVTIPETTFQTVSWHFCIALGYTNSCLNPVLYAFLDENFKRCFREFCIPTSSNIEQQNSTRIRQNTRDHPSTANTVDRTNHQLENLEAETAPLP
Kappa-type opioid receptor, sequence (P41145 whole entry): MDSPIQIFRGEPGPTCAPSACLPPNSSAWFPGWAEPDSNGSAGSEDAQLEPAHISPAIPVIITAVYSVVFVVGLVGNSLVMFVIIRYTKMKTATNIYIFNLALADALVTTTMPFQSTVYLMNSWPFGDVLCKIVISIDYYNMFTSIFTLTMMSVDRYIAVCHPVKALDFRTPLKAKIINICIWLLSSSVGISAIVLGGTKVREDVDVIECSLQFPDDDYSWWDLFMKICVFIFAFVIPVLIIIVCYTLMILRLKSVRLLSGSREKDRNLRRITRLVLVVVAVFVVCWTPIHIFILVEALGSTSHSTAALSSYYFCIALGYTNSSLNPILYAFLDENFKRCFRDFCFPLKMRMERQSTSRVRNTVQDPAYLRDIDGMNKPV

| Compound | Ki ([1]; read-out: Ki) [nM] | IC50 [2] [nM] | MIC [2] [µM] | Ki ([3]; read-out: Ki) [nM] | Ki ([4]; read-out: Ki) [nM] | also measured |
| --- | --- | --- | --- | --- | --- | --- |
| O=C1/C(=C/c2ccc(F)cc2)C[C@@]2(O)[C@H]3Cc4ccc(O)c5c4[C@@]2(CCN3CC2CC2)[C@H]1O5 | 34.5 | 12800 | 20 (≈ 8.95 µg/mL) | 20.9 | 108 |  |
| O=C1/C(=C/c2ccccc2C(F)(F)F)C[C@@]2(O)[C@H]3Cc4ccc(O)c5c4[C@@]2(CCN3CC2CC2)[C@H]1O5 |  |  | 80 (≈ 39.8 µg/mL) |  |  |  |
| C=CCN1C[C@H](C)N([C@H](c2ccc(C(=O)N(CC)CC)cc2)c2cccc(OC)c2)C[C@H]1C [SNC-80] |  |  | > 320 |  |  |  |
| Oc1ccc2c3c1O[C@H]1c4[nH]c5c(c4C[C@@]4(O)[C@@H](C2)N(CC2CC2)CC[C@]314)C[C@@]1(O)[C@H]2Cc3ccc(O)c4c3[C@@]1(CCN2CC1CC1)[C@H]5O4 [NORBINALTORPHIMINE] |  |  | > 320 |  |  |  |
| H-AFEVVG-NH2 |  |  | > 320 |  |  |  |
| O=C1/C(=C/c2ccc(I)cc2)C[C@@]2(O)[C@H]3Cc4ccc(O)c5c4[C@@]2(CCN3CC2CC2)[C@H]1O5 | 2.15 | 10500 | 20 (≈ 11.1 µg/mL) | 19.9 | 126 | MIC [5]: > 320 µM |
| O=C1C(Cc2ccccc2)C[C@@]2(O)[C@H]3Cc4ccc(O)c5c4[C@@]2(CCN3CC2CC2)[C@H]1O5 (some centres not stated) |  |  | 80 (≈ 34.5 µg/mL) |  |  |  |
| N#Cc1ccc(/C=C2\C[C@@]3(O)[C@H]4Cc5ccc(O)c6c5[C@@]3(CCN4CC3CC3)[C@@H](O6)C2=O)cc1 | 18.1 | 13200 | 20 (≈ 9.09 µg/mL) | 32.7 | 209 |  |
| O=C1/C(=C/c2ccccc2F)C[C@@]2(O)[C@H]3Cc4ccc(O)c5c4[C@@]2(CCN3CC2CC2)[C@H]1O5 | 2.94 | 18600 | 20 (≈ 8.95 µg/mL) | 12.8 | 35.1 |  |
| CN(C)c1ccc(/C=C2\C[C@@]3(O)[C@H]4Cc5ccc(O)c6c5[C@@]3(CCN4CC3CC3)[C@@H](O6)C2=O)cc1 | 3.72 | 13200 | 20 (≈ 9.45 µg/mL) | 17.2 | 28.6 |  |
| Cc1ncc([N+](=O)[O-])n1CCO [METRONIDAZOLE] |  | 5200 | 10 (≈ 1.71 µg/mL) |  |  | Ki [1]: Not Active; Ki [3]: Not Active; MIC [5]: 2.5 µM (≈ 0.428 µg/mL); Ki [4]: Not Active |
| O=C1/C(=C/c2ccc(C(F)(F)F)cc2)C[C@@]2(O)[C@H]3Cc4ccc(O)c5c4[C@@]2(CCN3CC2CC2)[C@H]1O5 | 83.9 | 13700 | 20 (≈ 9.95 µg/mL) | 192 | 176 |  |
| O=C1/C(=C/c2cccs2)C[C@@]2(O)[C@H]3Cc4ccc(O)c5c4[C@@]2(CCN3CC2CC2)[C@H]1O5 |  | 21600 | 40 (≈ 17.4 µg/mL) |  |  |  |
| CN(C(=O)/C=C/c1ccoc1)[C@@H]1CC[C@@]2(O)[C@H]3Cc4ccc(O)c5c4[C@@]2(CCN3CC2CC2)[C@H]1O5 [NALFURAFINE] |  |  | 80 (≈ 38.1 µg/mL) |  |  |  |
| COc1ccc(/C=C2\C[C@@]3(O)[C@H]4Cc5ccc(O)c6c5[C@@]3(CCN4CC3CC3)[C@@H](O6)C2=O)cc1 | 1.8 | 14100 | 20 (≈ 9.19 µg/mL) | 5.16 | 27.8 |  |
| COC(=O)/C=C/C(=O)N[C@@H]1CC[C@@]2(O)[C@H]3Cc4ccc(O)c5c4[C@@]2(CCN3CC2CC2)[C@H]1O5 |  |  | 80 (≈ 36.4 µg/mL) |  |  |  |
| O=C1/C(=C/c2ccc(Cl)cc2)C[C@@]2(O)[C@H]3Cc4ccc(O)c5c4[C@@]2(CCN3CC2CC2)[C@H]1O5 | 8.22 | 12700 | 20 (≈ 9.28 µg/mL) | 6.13 | 78.6 |  |
| COc1ccccc1/C=C1\C[C@@]2(O)[C@H]3Cc4ccc(O)c5c4[C@@]2(CCN3CC2CC2)[C@@H](O5)C1=O |  |  | > 320 |  |  |  |
| COc1ccc(/C=C2\C[C@@]3(O)[C@H]4Cc5ccc(OC)c6c5[C@@]3(CCN4CC3CC3)[C@@H](O6)C2=O)cc1 |  |  | 80 (≈ 37.9 µg/mL) |  |  |  |
| O=C1/C(=C/c2ccccc2Br)C[C@@]2(O)[C@H]3Cc4ccc(O)c5c4[C@@]2(CCN3CC2CC2)[C@H]1O5 |  |  | 80 (≈ 40.7 µg/mL) |  |  |  |

| Compound | Ki ([1]; read-out: Ki) [nM] | IC50 [2] [nM] | MIC [2] [µM] | Ki ([3]; read-out: Ki) [nM] | Ki ([4]; read-out: Ki) [nM] | also measured |
| --- | --- | --- | --- | --- | --- | --- |
| COc1ccc(CC2C[C@@]3(O)[C@H]4Cc5ccc(O)c6c5[C@@]3(CCN4CC3CC3)[C@@H](O6)C2=O)cc1 (some centres not stated) |  |  | > 320 |  |  |  |
| O=C1CC[C@@]2(O)[C@H]3Cc4ccc(O)c5c4[C@@]2(CCN3CC2CC2)[C@H]1O5 [NALTREXONE] |  |  | 80 (≈ 27.3 µg/mL) |  |  |  |
| CC1(C)SSC(C)(C)[C@H](NC(=O)[C@@H](N)Cc2ccc(O)cc2)C(=O)NCC(=O)N[C@@H](Cc2ccccc2)C(=O)N[C@@H]1C(=O)O |  |  | > 320 |  |  |  |
| CN1CC[C@]23Cc4nc5ccccc5cc4C[C@@]2(O)[C@H]1Cc1ccc(O)cc13 |  |  | 80 (≈ 29.8 µg/mL) |  |  |  |
| O=C1/C(=C/c2c(Cl)cccc2Cl)C[C@@]2(O)[C@H]3Cc4ccc(O)c5c4[C@@]2(CCN3CC2CC2)[C@H]1O5 |  |  | > 320 |  |  |  |
| O=C1/C(=C/c2cccc(F)c2)C[C@@]2(O)[C@H]3Cc4ccc(O)c5c4[C@@]2(CCN3CC2CC2)[C@H]1O5 | 8.37 | 14200 | 20 (≈ 8.95 µg/mL) | 10.7 | 49 |  |
| O=C1/C(=C/c2ccc(Br)cc2)C[C@@]2(O)[C@H]3Cc4ccc(O)c5c4[C@@]2(CCN3CC2CC2)[C@H]1O5 | 4.19 | 11200 | 20 (≈ 10.2 µg/mL) | 5.04 | 70.4 |  |
| COc1ccc2c3c1O[C@H]1C(=O)/C(=C/c4ccc(F)cc4)C[C@@]4(O)[C@@H](C2)N(CC2CC2)CC[C@]314 |  |  | 80 (≈ 36.9 µg/mL) |  |  |  |
| O=C1/C(=C/c2ccccc2Cl)C[C@@]2(O)[C@H]3Cc4ccc(O)c5c4[C@@]2(CCN3CC2CC2)[C@H]1O5 |  |  | > 320 |  |  |  |
| O=C1C(Cc2ccc(F)cc2)C[C@@]2(O)[C@H]3Cc4ccc(O)c5c4[C@@]2(CCN3CC2CC2)[C@H]1O5 (some centres not stated) |  |  | > 320 |  |  |  |
| COc1ccc2c3c1O[C@H]1C(=O)/C(=C/c4ccccc4)C[C@@]4(O)[C@@H](C2)N(CC2CC2)CC[C@]314 | 100 |  | 80 (≈ 35.5 µg/mL) | 499 | > 1000 |  |
| COc1cccc(/C=C2\C[C@@]3(O)[C@H]4Cc5ccc(O)c6c5[C@@]3(CCN4CC3CC3)[C@@H](O6)C2=O)c1 |  |  | 80 (≈ 36.8 µg/mL) |  |  |  |
| O=C1/C(=C/c2ccccc2)C[C@@]2(O)[C@H]3Cc4ccc(O)c5c4[C@@]2(CCN3CC2CC2)[C@H]1O5 [BNTX] | 2.81 | 21700 | 40 (≈ 17.2 µg/mL) | 11 | 32.8 | MIC [5]: > 320 µM |
| O=C1/C(=C/c2ccnc3ccccc23)C[C@@]2(O)[C@H]3Cc4ccc(O)c5c4[C@@]2(CCN3CC2CC2)[C@H]1O5 |  | 17200 | 40 (≈ 19.2 µg/mL) |  |  |  |
| O=C1/C(=C/c2ccco2)C[C@@]2(O)[C@H]3Cc4ccc(O)c5c4[C@@]2(CCN3CC2CC2)[C@H]1O5 |  |  | 160 (≈ 67.1 µg/mL) |  |  |  |
| O=C1/C(=C/c2cccc(C(F)(F)F)c2)C[C@@]2(O)[C@H]3Cc4ccc(O)c5c4[C@@]2(CCN3CC2CC2)[C@H]1O5 |  |  | 80 (≈ 39.8 µg/mL) |  |  |  |
| N#Cc1cccc(/C=C2\C[C@@]3(O)[C@H]4Cc5ccc(O)c6c5[C@@]3(CCN4CC3CC3)[C@@H](O6)C2=O)c1 |  | 18000 | 40 (≈ 18.2 µg/mL) |  |  |  |
| Oc1ccc2c3c1O[C@H]1c4oc5ccccc5c4C[C@@]4(O)[C@@H](C2)N(CC2CC2)CC[C@]314 [NALTRIBEN] |  |  | 80 (≈ 33.2 µg/mL) |  |  |  |
| Oc1ccc2c3c1O[C@H]1c4[nH]c5ccccc5c4C[C@@]4(O)[C@@H](C2)N(CC2CC2)CC[C@]314 [NALTRINDOLE] |  |  | 80 (≈ 33.2 µg/mL) |  |  |  |
| COc1ccc2c3c1O[C@H]1C(=O)C(Cc4ccccc4)C[C@@]4(O)[C@@H](C2)N(CC2CC2)CC[C@]314 (some centres not stated) |  |  | > 320 |  |  |  |
